Reference: patent publication US4370338A (priority 1980, dated 1983)
Where two headings read alike, the source gives them in different places.

How the values were obtained:
[1] = system: convulsions caused by supramaximal electric shock (ESM); assay: Supramaximal electric shock (ESM) convulsions in the mouse, oral; format: in vivo, mouse (male CD1, Charles River); details: 1.5 h, read-out: ED50 E.S.M. (mouse orally)
Protocol: These effects have been shown in vivo on the mouse and the rat. In the case of the mouse, the product is administered orally, in increasing doses, to batches of 10 male mice CD1 (Charles River) of 20-27 g, 90 minutes before exposure to a supramaximal electric shock (ESM), according to the method described by G. M. Everett and R. K. Richards (J. Pharmacol, Exptl. Therap. 81, 402, 1944).
(§1) The results obtained are collected in the following Table 1, wherein there are also given, for comparison, the results provided by two reference anticonvulsants (valproic acid, phenobarbital).

[2] = system: male mouse CD1; assay: Test of the 4 plates (anxiolytic activity); format: in vivo, Charles River); details: 90 minutes before test, vs control group
Protocol: The anxiolytic activity of the product has been shown on the mouse, by use of the method called the test of the 4 plates, described by J. R. Boissier et al. (Europ. J. Pharmacol., 4, 145, 1968).
90 minutes after oral administration of the product, the animal undergoing the test (male mouse CD1 Charles River of 20-27 g) is placed in a box the base or floor of which is formed of four separated metal plates. Each time the animal passes from one plate to another, all the plates are electrified. The animal rapidly associates displacement and an electric shock and stays immovable on one of the plates. The number of crossings effected by the mouse in 2 minutes is thus determined.
The animals are divided into groups of 20 mice, the control group receiving only the vehicle. The results obtained for the treated groups are expressed by a percentage increase of the number of passages with respect to the control group and are collected in Table 2 below.

[3] = system: convulsions caused by strychnine; assay: Strychnine convulsions in the rat, intraperitoneal; format: in vivo, rat (male CD, Charles River); details: for ED50: Rattus norvegicus, ip, read-out: ED50 Strychnine (rat ip)
Protocol: (§2) In the case of the male rat CD (Charles River) of 200-230 g, the convulsions are caused by the subcutaneous injection either of 500 mg/kg of isoniazide (INH) or of 1.5 mg/kg of a strychnine in the form of the sulfate. According to the protocol described by J. L. Costa et al. (Adv. Biochem., Pharmacol., 14, 113, 1975), the product to be tested is administered intraperitoneally 25 minutes after the isoniazide and 5 minutes before the strychnine. The number of animals having shown convulsions is registered during an observation period of 60 minutes after the injection of the isoniazide and 25 minutes after the injection of the strychnine.
as §1

[4] = system: convulsions caused by isoniazide (INH); assay: animal or person; format: in vivo, rat (male CD, Charles River); details: for ED50: 25 min, rat, ip, 25 minutes after 500 mg/kg sc isoniazide, dose protecting 50% of animals, read-out: ED50 I.N.H. (rat ip)
Protocol: as §2

Row | Compound | ED50 ([1]; mouse, oral, 90 minutes before supramaximal electric shock, dose protecting 50% of animals) [mg/kg] | % increase of the number of passages ([2]; 5 mg/kg orally) [%] | % increase of the number of passages ([2]; 10 mg/kg orally) [%] | % increase of the number of passages ([2]; 20 mg/kg orally) [%] | % increase of the number of passages ([2]; 25 mg/kg orally (first line printed 25)) [%] | % increase of the number of passages ([2]; 25 mg/kg orally (second line printed 25)) [%] | ED50 [3] [mg/kg] | ED50 [4] [mg/kg] | doses inhibiting INH convulsions, times less than those necessary to inhibit strychnine convulsions ([4]; INH versus strychnine convulsions) [times] | ED50 ([1]; Mus musculus, po) [mg/kg] | ED50 Strychnine (rat ip), result in words ([3]; rat, inactive at 600 (mg/kg))
1 | Nc1nc2ccc(OC(F)(F)F)cc2s1 [2-Amino-6-trifluoromethoxy-benzothiazole] | 10 | 50 | 61 | 100 | 162 | 215 | 8.4 | 2.2 | 4 | – | –
2 | CCC1(c2ccccc2)C(=O)NC(=O)NC1=O [Phenobarbital] | – | – | – | – | – | – | 33 | 16 | – | 26 | –
3 | CCCC(CCC)C(=O)O [Valproic acid] | – | – | – | – | – | – | – | 180 | – | 450 | inactive
